Experimental data as given in PubChem BioAssay (NCI).
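A five-concentration, 48-hour dose response in 96-well plates underlies each endpoint, interpolated linearly between surrounding concentrations. GI50: concentration for 50% inhibition of growth. TGI is the concentration that stops growth completely.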

How the values were obtained:
Experiment in all cases: NCI anticancer screen, dose series, 48 h; in the data active means GI50 below about 0.43 µM; inactive means the rest
[1] = system: SK-OV-3 ovarian
[2] = system: HOP-18 NSCLC
[3] = system: SK-MEL-5 melanoma
[4] = system: A549 NSCLC
[5] = system: IGROV1 ovarian
[6] = system: OVCAR-3 ovarian
[7] = system: M14 melanoma
[8] = system: NCI-H522 lung
[9] = system: HL-60(TB) leukemia
[10] = system: UO-31 renal
[11] = system: LOX IMVI melanoma
[12] = system: HCC-2998 colon
[13] = system: LXFL 529 NSCLC
[14] = system: EKVX NSCLC
[15] = system: HCT-15 colon
[16] = system: MALME-3M melanoma
[17] = system: U251 CNS
[18] = system: SF-295 CNS
[19] = system: NCI-H460 lung
[20] = system: OVCAR-5 ovarian
[21] = system: SR leukemia
[22] = system: RXF-631 renal
[23] = system: SN12C renal
[24] = system: CCRF-CEM leukemia
[25] = system: KM12 colon
[26] = system: SK-MEL-28 melanoma
[27] = system: HOP-92 NSCLC
[28] = system: KM20L2 colon
[29] = system: SW-620 colon
[30] = system: SNB-78 CNS
[31] = system: OVCAR-8 ovarian
[32] = system: A498 renal
[33] = system: MOLT-4 leukemia
[34] = system: K-562 leukemia
[35] = system: NCI-H226 lung
[36] = system: CAKI-1 renal
[37] = system: DMS 273 small cell lung
[38] = system: TK-10 renal
[39] = system: RXF 393 renal
[40] = system: NCI-H23 lung
[41] = system: HOP-62 NSCLC
[42] = system: UACC-62 melanoma
[43] = system: 786-0 renal
[44] = system: HCT-116 colon
[45] = system: SNB-19 CNS
[46] = system: ACHN renal
[47] = system: OVCAR-4 ovarian
[48] = system: SNB-75 CNS
[49] = system: HT29 colon
[50] = system: RPMI-8226 leukemia
[51] = system: UACC-257 melanoma
[52] = system: COLO 205 colon
[53] = system: SF-268 CNS
[54] = system: SK-MEL-2 melanoma
[55] = system: SF-539 CNS
[56] = system: DLD-1 colon
[57] = system: XF 498 CNS
[58] = system: M19-MEL melanoma
[59] = system: DMS 114 small cell lung

COC(=O)CCC(=O)C(CC(=O)OC)C(=O)CCC(=O)NCCc1ccccc1 (configuration not stated)
> 100 µM: TGI [1] | TGI [2] | TGI [3] | TGI [4] | TGI [5] | TGI [6] | TGI [7] | TGI [8] | TGI [9] | TGI [10] | TGI [11] | TGI [12] | TGI [13] | TGI [14] | TGI [15] | TGI [16] | TGI [17] | TGI [18] | TGI [19] | TGI [20] | TGI [21] | TGI [22] | TGI [23] | TGI [24] | TGI [25] | TGI [26] | TGI [27] | TGI [28] | TGI [29] | TGI [30] | TGI [31] | TGI [32] | TGI [33] | TGI [34] | TGI [35] | TGI [36] | TGI [37] | TGI [38] | TGI [39] | TGI [40] | TGI [41] | TGI [42] | TGI [43] | TGI [44] | TGI [45] | TGI [46] | TGI [47] | TGI [48] | TGI [49] | TGI [50] | TGI [51] | TGI [52] | TGI [53] | TGI [54] | TGI [55]

COc1ccc(-c2cc(=O)c3cc4c(cc3[nH]2)OCO4)c(OC)c1
97.9 µM: TGI [57]
80.1 µM: TGI [3]
31.2 µM: TGI [48]
77.2 µM: TGI [16]
inactive: GI50 [6] > 100 µM | GI50 [18] 46.2 µM | GI50 [28] 42.7 µM | GI50 [35] 93.5 µM | GI50 [39] 45.4 µM | GI50 [59] 26.1 µM | GI50 [44] 40.7 µM | GI50 [53] 62.6 µM
> 100 µM: TGI [1] | TGI [2] | TGI [4] | TGI [5] | TGI [6] | TGI [56] | TGI [7] | TGI [8] | TGI [10] | TGI [11] | TGI [12] | TGI [13] | TGI [14] | TGI [15] | TGI [17] | TGI [18] | TGI [19] | TGI [23] | TGI [24] | TGI [25] | TGI [58] | TGI [26] | TGI [27] | TGI [28] | TGI [29] | TGI [30] | TGI [31] | TGI [33] | TGI [34] | TGI [35] | TGI [36] | TGI [37] | TGI [38] | TGI [39] | TGI [40] | TGI [41] | TGI [42] | TGI [43] | TGI [44] | TGI [45] | TGI [46] | TGI [47] | TGI [49] | TGI [50] | TGI [52] | TGI [53] | TGI [54] | TGI [55]
46.3 µM: TGI [9]
74.2 µM: TGI [21]
87.3 µM: TGI [59]

Cc1cc2c(=O)c3ccc(Cl)cc3[nH]c2c(C(=O)O)c1C
> 100 µM: TGI [1] | TGI [2] | TGI [3] | TGI [4] | TGI [5] | TGI [6] | TGI [56] | TGI [7] | TGI [57] | TGI [8] | TGI [10] | TGI [11] | TGI [12] | TGI [13] | TGI [14] | TGI [15] | TGI [16] | TGI [17] | TGI [18] | TGI [19] | TGI [20] | TGI [23] | TGI [24] | TGI [25] | TGI [58] | TGI [26] | TGI [28] | TGI [29] | TGI [30] | TGI [31] | TGI [33] | TGI [34] | TGI [35] | TGI [36] | TGI [38] | TGI [39] | TGI [40] | TGI [41] | TGI [42] | TGI [59] | TGI [43] | TGI [44] | TGI [45] | TGI [46] | TGI [47] | TGI [48] | TGI [49] | TGI [50] | TGI [51] | TGI [52] | TGI [53] | TGI [54] | TGI [55]

Cc1ccc(NC(=O)CC2SC(=Nc3cccc(Cl)c3C)NC2=O)cc1 (configuration not stated)
95.3 µM: TGI [40]
96.6 µM: TGI [59]
96.5 µM: TGI [3]
73.8 µM: TGI [10]
> 100 µM: TGI [1] | TGI [4] | TGI [5] | TGI [6] | TGI [56] | TGI [7] | TGI [57] | TGI [11] | TGI [12] | TGI [13] | TGI [14] | TGI [15] | TGI [16] | TGI [17] | TGI [18] | TGI [19] | TGI [20] | TGI [22] | TGI [23] | TGI [24] | TGI [25] | TGI [58] | TGI [26] | TGI [28] | TGI [29] | TGI [30] | TGI [31] | TGI [32] | TGI [33] | TGI [34] | TGI [36] | TGI [37] | TGI [38] | TGI [41] | TGI [42] | TGI [43] | TGI [45] | TGI [46] | TGI [47] | TGI [48] | TGI [49] | TGI [50] | TGI [51] | TGI [52] | TGI [53] | TGI [54] | TGI [55]
